From patent US5478809A, “TAN-1511, its derivatives, production and use thereof” (Takeda Chemical Industries, Ltd., priority 1992, dated 1995)
*1 amine or outer side, *2 acyl side, *3 side chain or, on linkers, in order; H or OH if unused. Where a SMILES comes first, the peptide text is derived from it. [ ]: non-standard residue; d: D form. The star is where a group is joined. Dhc(Pam)2 = S-[2,3-bis(hexadecanoyloxy)-(2S)-propyl]-(R)-cysteine, CCCCCCCCCCCCCCCC(=O)OC[C@@H](CSC[C@H](N[*:1])C(=O)[*:2])OC(=O)CCCCCCCCCCCCCCC; Propyl(2R-PamO,3-PamO) = CCCCCCCCCCCCCCCC(=O)OC[C@H](C*)OC(=O)CCCCCCCCCCCCCCC; Palmitoyl = CCCCCCCCCCCCCCCC(=O)*; Myristoyl = CCCCCCCCCCCCCC(=O)*

Legend:
mice = assay: acute toxicity test to mice; assay type: in vivo, mouse; details: intraperitoneal administration, dose of 400 mg/kg
Experimental: No mouse administered intraperitoneally with Pam-Dhc(Pam)2 -Gly-Gly-Gly-Glu-Thr-Thr-OH (Compound 1) (SEQ ID No. 89) at a dose of 400 mg/kg was found dead.

spleen cells of mice [1] = assay: number of spleen cells in cyclophosphamide-treated mice (Experimental Example 2); assay type: in vivo, BALB/c mouse; details: cyclophosphamide singly, 250 mg/kg i.p.; saline/2% gum arabic mice = 100%
Experimental: (§1) A BALB/c mouse was injected intraperitoneally with cyclophosphamide dissolved in physiological saline solution at a dose of 250 mg/kg. From the next day, the animal was administered intraperitoneally for 3 consecutive days with TAN-1511 complex suspended in physiological saline solution containing 2% gum arabic at a dose of 2 mg/kg/day. On the day following completion of the administration, number of trypan blue chromophobic cells of spleen and peritoneal cavity was counted.

[2] = test system: peritoneal cavity cells of mice; assay: number of peritoneal cavity cells in cyclophosphamide-treated mice (Experimental Example 2); assay type: in vivo, BALB/c mouse; details: cyclophosphamide singly, 250 mg/kg i.p.; saline/2% gum arabic mice = 100%
Experimental: as §1

spleen cells of mice [3] = assay: number of spleen cells in cyclophosphamide-treated mice (Experimental Example 4); assay type: in vivo, BALB/c mouse; details: cyclophosphamide singly, 200 mg/kg i.p.; saline/2% gum arabic mouse = 100%
Experimental: as §1, with “200” for “250”, “day after next,” for “next day,”, “4” for “3”, “the test compound” for “TAN-1511 complex”, “arabic.” for “arabic at a dose of 2 mg/kg/day.”, “spleen” for “spleen and peritoneal cavity”

[4] = test system: leukocytes of peripheral blood; assay: enhancing the number of leukocytes in cyclophosphamide-treated mice; assay type: in vivo, CDF1/Crj mice; details: cyclophosphamide 150 mg/kg orally, then 5% glucose s.c. for 5 days; mice without cyclophosphamide = 100%
Experimental: Six week old female CDF1/Crj mice (5animals/group) were subjected to the experiment. […] From the next day, each animal was administered subcutaneously with the compound suspended in 5% glucose at the following dosages for five days once a day. On the next day after completion of the administration, about 100 μl of peripheral blood was collected from orbital vein using an EDTA-treated glass capillary. Then, the number of leukocytes was counted using a automatic cell analyzer (Sysmex K-2000, Toa Medical Electronics, Japan)

CCCCCCCCCCCCCCCC(=O)OC[C@H](CSC[C@H](NC(=O)CCCCCCCCCCCCC)C(=O)NCC(=O)NCC(=O)NCC(=O)N[C@@H](CCC(=O)O)C(=O)N[C@H](C(=O)N[C@H](C(=O)O)[C@@H](C)O)[C@@H](C)O)OC(=O)CCCCCCCCCCCCCCC [Compound 9, (2R,6R)-2-Myr-amino-6,7-bis(PamO)-4-THT-Gly-Gly-Gly-Glu-Thr-Thr-OH] (Myristoyl-C(Propyl(2R-PamO,3-PamO))GGGETT-OH)
mice found dead / killed (mice): No mouse was killed

O=P1(N(CCCl)CCCl)NCCCO1 (stereo not drawn) [Cyclophosphamide]
Number of spleen cells (%) (spleen cells of mice [1]): 11.8%
Number of peritoneal cavity cells (%) [2]: 27.7%
Number of abdominal cavity cells (%) (spleen cells of mice [3]): 33.4%
average value and standard deviation of leukocyte numbers [4]: 41±11%

Pam-Dhc(Pam)2 -Gly-Gly-Gly-Glu-Thr-Thr-OH (Palmitoyl-[Dhc(Pam)2]GGGETT-OH; SMILES CCCCCCCCCCCCCCCC(=O)N[C@@H](CSC[C@H](COC(=O)CCCCCCCCCCCCCCC)OC(=O)CCCCCCCCCCCCCCC)C(=O)NCC(=O)NCC(=O)NCC(=O)N[C@@H](CCC(=O)O)C(=O)N[C@H](C(=O)N[C@H](C(=O)O)[C@@H](C)O)[C@@H](C)O) [Compound 1]
mice found dead / killed (mice): No mouse
